According to patent publication US20160318866A1, “SUBSTITUTED BIPIPERIDINYL DERIVATIVES” (Bayer Pharma Aktiengesellschaft, priority 2013, published 2016):
Counter-ions that a name gives are not always drawn. Like-named read-outs stand apart in the source and are kept apart here.

Molecular target: T1, human α2C receptor (Homo sapiens, UniProt P18825)
T1 construct: expressed in transfected cells; host or cells: CHO cells, also recombinantly expressing chimeric G protein Gαqi3 and mitochondrial obelin (mtOb)
T1 sequence (P18825 1-462): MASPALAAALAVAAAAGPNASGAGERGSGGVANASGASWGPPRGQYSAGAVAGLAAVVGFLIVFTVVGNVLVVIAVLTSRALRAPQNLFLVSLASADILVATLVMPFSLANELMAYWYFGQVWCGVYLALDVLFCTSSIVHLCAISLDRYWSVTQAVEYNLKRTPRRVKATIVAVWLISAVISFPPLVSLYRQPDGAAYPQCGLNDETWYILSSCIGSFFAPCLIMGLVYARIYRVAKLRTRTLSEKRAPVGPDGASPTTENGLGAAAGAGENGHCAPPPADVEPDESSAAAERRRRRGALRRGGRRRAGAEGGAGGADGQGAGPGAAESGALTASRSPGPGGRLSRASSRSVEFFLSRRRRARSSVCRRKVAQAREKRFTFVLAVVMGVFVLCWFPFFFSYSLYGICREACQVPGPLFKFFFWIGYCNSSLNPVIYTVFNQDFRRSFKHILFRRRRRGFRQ
Assay: Antagonism against the adrenoreceptor α2C (luminescence, recombinant CHO cell line)
Type: cell-based
Procedure: Antagonism against the adrenoreceptor α1A was tested using a recombinant human α1A receptor CHO cell line which additionally also recombinantly expresses mtAeq (mitochondrial aequorin). Antagonism against the adrenoreceptor α2A was tested using a recombinant human α2A-Gα16 receptor fusion protein CHO cell line (PerkinElmer Life Sciences) which additionally also recombinantly expresses mtAeq. Antagonism against the adrenoreceptor α2B was tested using a recombinant human α2B receptor CHO cell line (PerkinElmer Life Sciences) which additionally also recombinantly expresses mtAeq. Antagonism against the adrenoreceptor α2C was tested using a recombinant human α2C receptor CHO cell line which additionally also recombinantly expresses a chimaric G protein (Gαqi3) and mtOb (mitochondrial obelin).
The cells were cultivated at 37° C. and 5% CO2 in Dulbecco's modified Eagle's Medium/NUT mix F12 with L-glutamine which additionally contains 10% (v/v) inactivated foetal calf serum, 1 mM sodium pyruvate, 0.9 mM sodium bicarbonate, 50 U/ml penicillin, 50 μg/ml streptomycin, 2.5 μg/ml amphotericin B and 1 mg/ml Geneticin. The cells were passaged with enzyme-free Hank's-based cell dissociation buffer. All cell culture reagents used are from Invitrogen (Carlsbad, USA).
Luminescence measurements were carried out on white 384-well microtitre plates. 2000 cells/well were plated in a volume of 25 μl and cultivated for one day at 30° C. and 5% CO2 in cell culture medium with coelenterazine (α2A and α2B: 5 μg/ml; α1a/c and α2C: 2.5 μg/ml). Serial dilutions of the test substances (10 μl) were added to the cells. After 5 minutes, noradrenalinee was added to the cells (35 μl; final concentrations: 20 nM (α1a/c and α2C) or 200 nM (α2A and α2B)), and the emitted light was measured for 50 seconds using a CCD (charge-coupled device) camera (Hamamatsu Corporation, Shizuoka, Japan) in a light-tight box. The test substances were tested up to a maximum concentration of 10 μM. The IC50 values were calculated from the appropriate dose-response curves.

[1] = antagonism against adrenoreceptor α2C, noradrenaline 20 nM, tested up to 10 μM, read-out: IC50

Row | SMILES | IC50 [1] [nM] | IC50 [nM]
1 | CC1CCCN(C2CCN(C(=O)c3ccc(C(=O)NC(C)C(C)C)cc3)CC2)C1 (centres unmarked) [Example 47, 4-[(3-methyl-1,4′-bipiperidin-1′-yl)carbonyl]-N-(3-methylbutan-2-yl)benzamide] | 150 | –
2 | CC1=C(C)CN(C2CCN(C(=O)c3ccc(C(C)(C)C)cc3)CC2)CC1 [Example 17, 1-[1-(4-tert-Butylbenzoyl)piperidin-4-yl]-4,5-dimethyl-1,2,3,6-tetrahydropyridine] | 34 | –
3 | CNCC1(c2ccc(C(=O)N3CCC(N4CCCC(C)C4)CC3)cc2)CCC1 (centres unmarked) [Example 68, (4-{1-[(Methylamino)methyl]cyclobutyl}phenyl) (3-methyl-1,4′-bipiperidin-1′-yl)methanone trifluoroacetic acid salt] | – | 4
4 | CC(C)(C)c1ccc(C(=O)N2CCC(N3CCCC(OC(=O)N4CCCC4)C3)CC2)cc1 (centres unmarked) [Example 40, 1′-(4-tert-Butylbenzoyl)-1,4′-bipiperidin-3-yl-pyrrolidin-1-carboxylate trifluoroacetic acid salt] | 127 | –
5 | CC1CCCN(C2CCN(C(=O)c3ccc(C(=O)NCc4ccnc(Cl)c4)cc3)CC2)C1 (centres unmarked) [Example 75, N-[(2-Chloropyridin-4-yl)methyl]-4-[(3-methyl-1,4′-bipiperidin-1′-yl)carbonyl]benzamide trifluoroacetic acid salt] | 36 | –
6 | COCC1CCCN(C2CCN(C(=O)c3ccc(C(=O)Nc4c(C)noc4C)cc3)CC2)C1 (centres unmarked) [Example 105, N-(3,5-Dimethyl-1,2-oxazol-4-yl)-4-{[3-(methoxymethyl)-1,4′-bipiperidin-1′-yl]carbonyl}benzamide] | 10 | –
7 | CC1CCCN(C2CCN(C(=O)c3ccc(C(=O)NC(C)(C)c4ccc(C(F)(F)F)cc4)cc3)CC2)C1 (centres unmarked) [Example 72, 4-[(3-Methyl-1,4′-bipiperidin-1′-yl)carbonyl]-N-{2-[4-(trifluoromethyl)phenyl]propan-2-yl}benzamide trifluoroacetic acid salt] | 116 | –
8 | COCC1CCCN(C2CCN(C(=O)c3ccc(C(=O)N(C)Cc4c(F)cccc4F)cc3)CC2)C1 (centres unmarked) [Example 96, N-(2,6-Difluorobenzyl)-4-{[3-(methoxymethyl)-1,4′-bipiperidin-1′-yl]carbonyl}-N-methylbenzamide trifluoroacetic acid salt] | 10 | –
9 | CC1CCCN(C2CCN(C(=O)c3ccc(C(=O)NC(C)(C)C)c(F)c3)CC2)C1 (centres unmarked) [Example 103, N-tert-Butyl-2-fluoro-4-[(3-methyl-1,4′-bipiperidin-1′-yl)carbonyl]benzamide] | 73 | –
10 | CC(C)(O)c1ccc(C(=O)N2CCC(N3CCCC(c4ncn[nH]4)C3)CC2)cc1 (centres unmarked) [Example 64] | 393 | –
11 | CCOC(=O)C1(c2ccc(C(=O)N3CCC(N4CCCC(C)C4)CC3)cc2)CC1 (centres unmarked) [Example 30, 1-(1-{4-[1-(Ethoxycarbonyl)cyclopropyl]benzoyl}piperidin-4-yl)-3-methylpiperidine trifluoroacetic acid salt] | 166 | –
12 | COCCc1noc(C2CCCN(C3CCN(C(=O)c4ccc(C(C)(C)C)cc4)CC3)C2)n1 (centres unmarked) [Example 109, (4-tert-Butylphenyl){3[3-(2-methoxyethyl)-1,2,4-oxadiazol-5-yl]-1,4′-bipiperidin-1′-}methanone] | 104 | –
13 | CC1CCCN(C2CCN(C(=O)c3ccc(C(=O)NCc4ccncc4)cc3)CC2)C1 (centres unmarked) [Example 45, 4-[(3-methyl-1,4′-bipiperidin-1′-yl)carbonyl]-N-(pyridin-4-yl-methyl) benzamide] | 82 | –
14 | CC1CCCN(C2CCN(C(=O)c3ccc(C(=O)NCc4cccc(OC(F)(F)F)c4)cc3)CC2)C1 (centres unmarked) [Example 70, 4-[(3-Methyl-1,4′-bipiperidin-1′-yl)carbonyl]-N-[3-(trifluoromethoxy)benzyl]benzamide trifluoroacetic acid salt] | 190 | –
15 | CCOC(=O)Cc1ccc(C(=O)N2CCC(N3CCCC(C)C3)CC2)cc1 (centres unmarked) [Example 33, 1-{1-[4-(2-Ethoxy-2-oxoethyl)benzoyl]piperidin-4-yl}-3-methylpiperidine trifluoroacetic acid salt] | 497 | –
16 | CC(C)(C)OCC1CCCN(C2CCN(C(=O)c3ccc(C(C)(C)C)cc3)CC2)C1 (centres unmarked) [Example 107, [3-(tert-Butoxymethyl)-1,4′-bipiperidin-1′-yl](4-tert-butylphenyl)methanone] | 90 | –
17 | CC(C)(O)c1ccc(C(=O)N2CCC(N3CCCC(C4CC4)C3)CC2)cc1 (centres unmarked) [Example 126, (3-Cyclopropyl-1,4′-bipiperidin-1′-yl)[4-(2-hydroxypropan-2-yl)phenyl]methanone] | 12 | –
18 | COC(=O)C(C)(C)c1ccc(C(=O)N2CCC(N3CCCC(C)C3)CC2)c(F)c1 (centres unmarked) [Example 41, Methyl 2-{3-fluoro-4-[(3-methyl-1,4′-bipiperidin-1′-yl)carbonyl]phenyl}-2-methylpropanoate trifluoroacetic acid salt] | 199 | –
19 | COC(C)(C)c1ccc(C(=O)N2CCC(N3CCCC(COC(C)(C)C)C3)CC2)cc1 (centres unmarked) [Example 119, [3-(tert-Butoxymethyl)-1,4′-bipiperidin-1′-yl][4-(2-methoxypropan-2-yl)phenyl]methanone] | 16 | –
20 | C[C@@H]1CCCN(C2CCN(C(=O)c3ccc(C(=O)NC(C)(C)C)cc3Cl)CC2)C1 [Example 101, N-tert-Butyl-3-chloro-4-{[(3R)-3-methyl-1,4′-bipiperidin-1′-yl]carbonyl}benzamide formic acid salt] | 21 | –
21 | CC1CCCN(C2CCN(C(=O)c3ccc(C(=O)NCc4cccc(Cl)n4)cc3)CC2)C1 (centres unmarked) [Example 76, N-[(6-Chloropyridin-2-yl)methyl]-4-[(3-methyl-1,4′-bipiperidin-1′-yl)carbonyl]benzamide trifluoroacetic acid salt] | 445 | –
22 | CC(C)(O)c1ccc(C(=O)N2CCC(N3CCCC(OCC4CC4)C3)CC2)cc1 (single isomer, unassigned; enantiomer 1) [Example 129, [3-(Cyclopropylmethoxy)-1,4′-bipiperidin-1′-yl][4-(2-hydroxypropan-2-yl)phenyl]methanone hydrochloride (enantiomer 1)] | 16 | –
23 | C[C@@H]1CCCN(C2CCN(C(=O)c3ccc(C(C)(C)O)c(Cl)c3)CC2)C1 [Example 99, [3-Chloro-4-(2-hydroxypropan-2-yl)phenyl][(3R)-3-methyl-1,4′-bipiperidin-1′-yl]methanone] | 84 | –
24 | CC1CCCN(C2CCN(C(=O)c3ccc(C(=O)N(C)CC4(C)COC4)cc3)CC2)C1 (centres unmarked) [Example 52, N-methyl-4-[(3-methyl-1,4′-bipiperidin-1′-yl)carbonyl]-N-[(3-methyloxetan-3-yl)methyl]benzamide] | 182 | –
25 | C[C@@H]1CCCN(C2CCN(C(=O)c3ccc(C(=O)NCc4cc(C(F)(F)F)c(Cl)cn4)cc3)CC2)C1 [Example 92, N-{[5-Chloro-4-(trifluoromethyl)pyridin-2-yl]methyl}-4-{[(3R)-3-methyl-1,4′-bipiperidin-1′-yl]carbonyl}benzamide] | 160 | –
26 | COc1ccccc1OCc1ccc(C(=O)N2CCC(N3CCCC(C)C3)CC2)cc1 (centres unmarked) [Example 10, {4-[(2-Methoxyphenoxy)methyl]phenyl}[3-methyl-1,4′-bipiperidin-1′-yl]methanone] | 96 | –
27 | CC(C)(O)c1ccc(C(=O)N2CCC(N3CCCC(c4nc(C5CCC5)n[nH]4)C3)CC2)cc1 (centres unmarked) [Example 61, [3-(5-Cyclobutyl-4H-1,2,4-triazol-3-yl)-1,4′-bipiperidin-1′-yl][4-(2-hydroxypropan-2-yl)phenyl]methanone] | 111 | –
28 | CCOC(=O)C1CCCN(C2CCN(C(=O)c3ccc(C4(C)COC4)cc3)CC2)C1 (centres unmarked) [Example 26, Ethyl 1′-[4-(3-methyloxetan-3-yl)benzoyl]-1,4′-bipiperidine-3-carboxylate] | 12 | –
29 | CC(C)(O)c1ccc(C(=O)N2CCC(N3CCCC(COC4CCC4)C3)CC2)cc1 (racemic) [Example 116, {3-[(Cyclobutyloxy)methyl]-1,4′-bipiperidin-1′-yl}[4-(2-hydroxypropan-2-yl)phenyl]methanone (racemate)] | 7 | –
